From patent publication US12479895B2, “C-terminal CDNF and MANF fragments, pharmaceutical compositions comprising same and uses thereof” (MyNeuroCure Oy, priority 2018, dated 2025)

Columns and labels:
ER stressed SCG neurons = test: Survival of tunicamycin-treated (ER stressed) SCG sympathetic neurons after microinjection; format: cell-based, mice; details: for survived neurons as % compared to neurons grown in the presence of NGF: microinjected into cytoplasm, CDNF (400); for Fold change of survived neurons compared to neurons injected with PBS: data of Table 1 divided by values of PBS
Procedure: Non-neuronal cells were removed by extensive preplating. Almost pure neurons were cultured in polyornithine/laminin (Sigma)-coated 35-mm plastic dishes in the small-size standard microislands in the Neurobasal medium and B27 supplement (Invitrogen/Gibco) in the presence of 30 ng/ml mouse nerve growth factor (NGF) (Promega) for 5-6 days. NGF was deprived by extensive washing and addition of the function-blocking anti-NGF antibodies (Roche). The neurons were pressure-microinjected with special neuronal microinjection equipment (Hellman et al., 2011; Hamner et al., 2001; Lindholm et al., 2002; Sun et al., 2001; Yu et al., 2003)(Sun et al., 2001; Sun et al., 2003). For the survival assay, all neurons on the microislands were counted in the beginning (initial number) and the end (three days) of the experiment and expressed as % of initial.
Microinjection of the sympathetic neurons was performed as described earlier (Yu, L. Y., Jokitalo, E., Sun, Y. F., Mehlen, P., Lindholm, D., Saarma, M., and Arumae, U. (2003) J Cell Biol. 163, 987-997). Plasmids for CDNF have been described earlier. Briefly, newborn mouse SCG neurons were grown with NGF (Promega) for 5-6 days then the nuclei were microinjected with the expression plasmids for full-length (FL)-CDNF and C-CDNF together with a reporter plasmid for enhanced green fluorescent protein (EGFP), using vector concentration of 10 ng/ul in each experiment. […] For protein microinjection, recombinant full length (FL)-CDNF, C-CDNF proteins in PBS at 200 ng/ul were microinjected directly into the cytoplasm together with fluorescent reporter Dextran Texas Red (MW 70000 Da) (Invitrogen, Molecular Probes) that facilitates identification of the successfully injected neurons. Next day tunicamycin (2 μM) was added, and after 3 days the living fluorescent neurons were counted. Living fluorescent (EGFP-expressing or Dextran Texas Red-containing) neurons were “blindly” counted three days later and expressed as percent of initial living fluorescent neurons counted 2-3 hours after microinjection. The experiments with plasmids were repeated on independent cultures 5 times for plasmid experiment, whereas four independent protein injection experiments were performed. On average, 50-80 neurons were successfully injected per experimental group. The results were expressed as the mean±the SEM. Data of each experimental group was compared with control plasmid PCR3.1 (vector) or PBS (in the protein injection experiments) by one-way ANOVA and post hoc Dunnett's t test. The null hypothesis was rejected at p<0.05.

dopamine neurons = test: Survival of TH-positive dopamine neurons in dissociated midbrain floor cultures; format: cell-based, mouse; details: for survived neurons as % compared to neurons grown in the presence of GDNF: 5 days; for Fold change of survived neurons compared to neurons grown without growth factors: data of Table 3 divided by values of no factor
Procedure: To study the dopamine neurons (Yu et al., 2008; Yu and Arumae, 2008), the midbrain floors were dissected from the ventral mesencephali of 13.5-d-old NMRI strain mouse embryos. Tissues were incubated with 0.5% trypsin (ICN Biomedical), then mechanically dissociated using a large fire-polished Pasteur pipette. The neurons were grown on the poly-L-ornithine-coated (Sigma) 96-well culture plates in DMEM/F12 medium (Invitrogen) containing N2 supplement (Invitrogen) in the presence or absence of GDNF (100 ng/ml) or with CDNF, MANF, C-CDNF and C-MANF polypeptides at different concentrations for five days. Same amount of the neurons were plated to each well at the beginning of the experiments. The cultures without added neurotrophic factors served as the negative control. As the midbrain cultures contain several neuronal types, the cultures were fixed and immunostained with the antibodies to tyrosine hydroxylase (TH) (Millipore), a specific marker for the dopaminergic neurons. Images of each well were scanned by CellInsight™ and immunopositive neurons were counted by CellProfiler and CellProfiler analyst software. Data are expressed as a percentage of GDNF-maintained TH-positive neurons. All experiments were repeated at least three times on the independent cultures. The results were expressed as the mean the SEM and were tested for the significance by either one-way ANOVA and Tukey's post hoc test or by two-tailed Student's t-test. The null hypothesis was rejected at P≤0.05.

[1] = Table 1A (FIG. 14), AVG of exp1-2, tunicamycin 2 μM
[2] = Table 1A (FIG. 14), exp1, tunicamycin 2 μM, counted after 3 days
[3] = Table 1A (FIG. 14), exp2, tunicamycin 2 μM, counted after 3 days
[4] = Table 3A (FIG. 15), AVG, 100 ng/ml
[5] = Table 3A (FIG. 15), exp1, 100 ng/ml
[6] = Table 3A (FIG. 15), exp2, 100 ng/ml
[7] = Table 3A (FIG. 15), exp3, 100 ng/ml

Molecule: KYEKTLDLASVDLRKMRVAELKQILHSWGEECRACAEKTDYVNLIQELAP (listed as Homo sapiens) [pep7]
- survived neurons as % compared to neurons grown in the presence of NGF (ER stressed SCG neurons; [1]): 80.76 % NGF
- survived neurons as % compared to neurons grown in the presence of NGF (ER stressed SCG neurons; [2]): 76.67 % NGF
- survived neurons as % compared to neurons grown in the presence of NGF (ER stressed SCG neurons; [3]): 84.85 % NGF
- Fold change of survived neurons compared to neurons injected with PBS (ER stressed SCG neurons; Table 2, AVG): 2.19 Fold to PBS
- Fold change of survived neurons compared to neurons injected with PBS (ER stressed SCG neurons; Table 2, exp1): 2.24 Fold to PBS
- Fold change of survived neurons compared to neurons injected with PBS (ER stressed SCG neurons; Table 2, exp2): 2.14 Fold to PBS
- survived neurons as % compared to neurons grown in the presence of GDNF (dopamine neurons; Table 3A (FIG. 15), AVG, 1 ng/ml): 70.12 % GDNF
- survived neurons as % compared to neurons grown in the presence of GDNF (dopamine neurons; Table 3A (FIG. 15), AVG, 10 ng/ml): 76.13 % GDNF
- survived neurons as % compared to neurons grown in the presence of GDNF (dopamine neurons; [4]): 72.36 % GDNF
- survived neurons as % compared to neurons grown in the presence of GDNF (dopamine neurons; Table 3A (FIG. 15), AVG, 1000 ng/ml): 79.07 % GDNF
- survived neurons as % compared to neurons grown in the presence of GDNF (dopamine neurons; Table 3A (FIG. 15), exp1, 1 ng/ml): 67.76 % GDNF
- survived neurons as % compared to neurons grown in the presence of GDNF (dopamine neurons; Table 3A (FIG. 15), exp1, 10 ng/ml): 63.47 % GDNF
- survived neurons as % compared to neurons grown in the presence of GDNF (dopamine neurons; [5]): 62.89 % GDNF
- survived neurons as % compared to neurons grown in the presence of GDNF (dopamine neurons; Table 3A (FIG. 15), exp1, 1000 ng/ml): 64.02 % GDNF
- survived neurons as % compared to neurons grown in the presence of GDNF (dopamine neurons; Table 3A (FIG. 15), exp2, 1 ng/ml): 73.36 % GDNF
- survived neurons as % compared to neurons grown in the presence of GDNF (dopamine neurons; Table 3A (FIG. 15), exp2, 10 ng/ml): 83.50 % GDNF
- survived neurons as % compared to neurons grown in the presence of GDNF (dopamine neurons; [6]): 79.82 % GDNF
- survived neurons as % compared to neurons grown in the presence of GDNF (dopamine neurons; Table 3A (FIG. 15), exp2, 1000 ng/ml): 86.37 % GDNF
- survived neurons as % compared to neurons grown in the presence of GDNF (dopamine neurons; Table 3A (FIG. 15), exp3, 1 ng/ml): 69.24 % GDNF
- survived neurons as % compared to neurons grown in the presence of GDNF (dopamine neurons; Table 3A (FIG. 15), exp3, 10 ng/ml): 81.41 % GDNF
- survived neurons as % compared to neurons grown in the presence of GDNF (dopamine neurons; [7]): 74.38 % GDNF
- survived neurons as % compared to neurons grown in the presence of GDNF (dopamine neurons; Table 3A (FIG. 15), exp3, 1000 ng/ml): 86.80 % GDNF
- Fold change of survived neurons compared to neurons grown without growth factors (dopamine neurons; Table 4, AVG, 1 ng/ml): 1.14 fold
- Fold change of survived neurons compared to neurons grown without growth factors (dopamine neurons; Table 4, AVG, 10 ng/ml): 1.23 fold
- Fold change of survived neurons compared to neurons grown without growth factors (dopamine neurons; Table 4, AVG, 100 ng/ml): 1.17 fold
- Fold change of survived neurons compared to neurons grown without growth factors (dopamine neurons; Table 4, AVG, 1000 ng/ml): 1.28 fold
- Fold change of survived neurons compared to neurons grown without growth factors (dopamine neurons; Table 4, exp1, 1 ng/ml): 1.19 fold
- Fold change of survived neurons compared to neurons grown without growth factors (dopamine neurons; Table 4, exp1, 10 ng/ml): 1.11 fold
- Fold change of survived neurons compared to neurons grown without growth factors (dopamine neurons; Table 4, exp1, 100 ng/ml): 1.10 fold
- Fold change of survived neurons compared to neurons grown without growth factors (dopamine neurons; Table 4, exp1, 1000 ng/ml): 1.12 fold
- Fold change of survived neurons compared to neurons grown without growth factors (dopamine neurons; Table 4, exp2, 1 ng/ml): 1.16 fold
- Fold change of survived neurons compared to neurons grown without growth factors (dopamine neurons; Table 4, exp2, 10 ng/ml): 1.32 fold
- Fold change of survived neurons compared to neurons grown without growth factors (dopamine neurons; Table 4, exp2, 100 ng/ml): 1.27 fold
- Fold change of survived neurons compared to neurons grown without growth factors (dopamine neurons; Table 4, exp2, 1000 ng/ml): 1.37 fold
- Fold change of survived neurons compared to neurons grown without growth factors (dopamine neurons; Table 4, exp3, 1 ng/ml): 1.07 fold
- Fold change of survived neurons compared to neurons grown without growth factors (dopamine neurons; Table 4, exp3, 10 ng/ml): 1.26 fold
- Fold change of survived neurons compared to neurons grown without growth factors (dopamine neurons; Table 4, exp3, 100 ng/ml): 1.15 fold
- Fold change of survived neurons compared to neurons grown without growth factors (dopamine neurons; Table 4, exp3, 1000 ng/ml): 1.34 fold

Molecule: cerebral dopamine neurotrophic factor [CDNF]
- survived neurons as % compared to neurons grown in the presence of NGF (ER stressed SCG neurons; [1]): 88.04 % NGF
- survived neurons as % compared to neurons grown in the presence of NGF (ER stressed SCG neurons; [2]): 85.71 % NGF
- survived neurons as % compared to neurons grown in the presence of NGF (ER stressed SCG neurons; [3]): 90.36 % NGF
- survived neurons as % compared to neurons grown in the presence of NGF (ER stressed SCG neurons; Table 1B (FIG. 16), exp1, tunicamycin 2 μM, counted after 3 days): 86.00 % NGF
- survived neurons as % compared to neurons grown in the presence of NGF (ER stressed SCG neurons; Table 1B (FIG. 16), exp2, tunicamycin 2 μM, counted after 3 days): 71.23 % NGF
- survived neurons as % compared to neurons grown in the presence of NGF (ER stressed SCG neurons; Table 1B (FIG. 16), exp3, tunicamycin 2 μM, counted after 3 days): 83.33 % NGF
- rescue of ER stressed SCG sympathetic neurons (result in words) (ER stressed SCG neurons; expressed from microinjected plasmids, tunicamycin 2 μM, living fluorescent neurons counted after three days): rescue
- rescue of ER stressed SCG neurons (result in words) (ER stressed SCG neurons; protein or peptide microinjected into the cytoplasm, tunicamycin 2 μM, living fluorescent neurons counted after 3 days): rescue

B1: glial cell line-derived neurotrophic factor (protein, UniProt P39905 78-211, looked up)
Glial cell line-derived …: SPDKQMAVLPRRERNRQAAAANPENSRGKGRRGQRGKNRGCVLTAIHLNVTDLGLGYETKEELIFRYCSGSCDAAETTYDKILKNLSRNRRLVSDKVGQACCRPIAFDDDLSFLDDNLVYHILRKHSAKRCGCI
notes: Positive control neurotrophic factor, 100 ng/ml
- survived neurons as % compared to neurons grown in the presence of GDNF (dopamine neurons; [4]): 100 % GDNF
- survived neurons as % compared to neurons grown in the presence of GDNF (dopamine neurons; [5]): 100 % GDNF
- survived neurons as % compared to neurons grown in the presence of GDNF (dopamine neurons; [6]): 100 % GDNF
- survived neurons as % compared to neurons grown in the presence of GDNF (dopamine neurons; [7]): 100 % GDNF
- survived neurons as % compared to neurons grown in the presence of GDNF (dopamine neurons; Table 3B (FIG. 17), AVG, 100 ng/ml): 100 % GDNF
